From EP0477217B1, “STABILIZED, POTENT GRF ANALOGS” (THE UPJOHN COMPANY, priority 1989, dated 1994)
Where no end group is shown, it is not given here.

Legend:
[1] = tested on: release of GH by the pituitary; assay: relative in vivo potency of GRF analogs (Table I); settings: expected from the relative in vivo potency at a dose of 0.01 nmol/kg; ED50 not determined
plasma DPP-IV = type: in vitro ADME, bovine
Protocol: Evidence of the improved metabolic stability of the compounds of this invention (when compared to native GRF) is illustrated in Table I by the in vitro stability data provided. It is noteworthy that in bovine plasma in vitro, the analogs having […], Val², Ile² or Leu² were not cleaved after residue 2 by plasma DPP-IV under the experimental conditions used in the study (one hour plasma incubation).

Substance | potency relative to its isomer Leu2 Ala15 Leu27 bGRF(1-29)NH2, trifluoroacetate salt, when the ED50 of each is determined and compared [1] | DPP-IV related cleavage (plasma DPP-IV)
Ile² Ala¹⁵ Leu²⁷ bGRF(1-29)NH₂, trifluoroacetate salt [Cpd. No. 3] | 10-20 times | 
YTDAIFTNSYRKVLAQLSARKLLQDILNR-NH2 [Cpd. No. 1, Thr² Ala¹⁵ Leu²⁷ bGRF(1-29)NH₂, trifluoroacetate salt] |  | slight DPP-IV related cleavage
